According to the CheMixHub viscosity set:
± gives the uncertainty stated by the source.

Test: xn = mol fraction of the nth substance listed

N#Cc1ccccc1 + Cc1ccccc1
viscosity [mPa·s], 100 kPa
Conditions | x1 = 0.1034 | x1 = 0.2113 | x1 = 0.3332 | x1 = 0.409 | x1 = 0.5093 | x1 = 0.6337 | x1 = 0.7569 | x1 = 0.879
303 K | 0.5391 ± 0.054 | 0.5612 ± 0.056 | 0.6226 ± 0.063 | 0.6592 ± 0.066 | 0.7016 ± 0.071 | 0.7812 ± 0.079 | 0.8795 ± 0.088 | 0.9682 ± 0.098
308 K | 0.5099 ± 0.051 | 0.5348 ± 0.054 | 0.6121 ± 0.062 | 0.6589 ± 0.066 | 0.7285 ± 0.073 | 0.7989 ± 0.08 | 0.8621 ± 0.087 | 0.9325 ± 0.094
313 K | 0.5068 ± 0.051 | 0.5399 ± 0.054 | 0.5908 ± 0.06 | 0.6325 ± 0.064 | 0.6985 ± 0.07 | 0.7545 ± 0.076 | 0.8319 ± 0.084 | 0.8819 ± 0.089

CCCOCCO + CCCN
viscosity [mPa·s], 101.33 kPa
Conditions | 298.15 K | 308.15 K | 318.15 K
x1 = 0.0069 | 0.365 ± 0.004 | 0.336 ± 0.004 | 0.296 ± 0.003
x1 = 0.0201 | 0.383 ± 0.004 | 0.346 ± 0.004 | 0.307 ± 0.004
x1 = 0.054 | 0.429 ± 0.005 | 0.385 ± 0.004 | 0.335 ± 0.004
x1 = 0.1049 | 0.509 ± 0.005 | 0.446 ± 0.005 | 0.382 ± 0.004
x1 = 0.1955 | 0.678 ± 0.007 | 0.574 ± 0.006 | 0.481 ± 0.005
x1 = 0.2496 | 0.797 ± 0.008 | 0.668 ± 0.007 | 0.55 ± 0.006
x1 = 0.3215 | 0.969 ± 0.01 | 0.8 ± 0.008 | 0.655 ± 0.007
x1 = 0.3686 | 1.103 ± 0.012 | 0.895 ± 0.01 | 0.722 ± 0.008
x1 = 0.4528 | 1.338 ± 0.014 | 1.075 ± 0.012 | 0.853 ± 0.009
x1 = 0.4581 | 1.355 ± 0.014 | 1.088 ± 0.012 | 0.862 ± 0.009
x1 = 0.5595 | 1.629 ± 0.018 | 1.289 ± 0.014 | 1.015 ± 0.011
x1 = 0.6789 | 1.925 ± 0.022 | 1.51 ± 0.017 | 1.175 ± 0.014
x1 = 0.752 | 2.082 ± 0.024 | 1.628 ± 0.019 | 1.265 ± 0.015
x1 = 0.8162 | 2.191 ± 0.026 | 1.715 ± 0.02 | 1.32 ± 0.016
x1 = 0.8943 | 2.282 ± 0.027 | 1.803 ± 0.022 | 1.385 ± 0.017
x1 = 0.9697 | 2.333 ± 0.029 | 1.867 ± 0.023 | 1.435 ± 0.018

C[n+]1ccn(CCc2ccccc2)c1.[Cl][Al-]([Cl])([Cl])[Cl] + CCCC[n+]1ccn(C)c1.[Cl][Al-]([Cl])([Cl])[Cl]
viscosity [mPa·s], 101 kPa
Conditions | 293.15 K | 298.15 K | 303.15 K | 308.15 K | 313.15 K | 318.15 K | 323.15 K
x2 = 0.5 | 92.4 ± 4.3 | 74.8 ± 3.5 | 60.6 ± 2.8 | 50.1 ± 2.3 | 41.7 ± 1.9 | 36.4 ± 1.6 | 32.1 ± 1.4
x2 = 0.6 | 75.1 ± 3.5 | 60 ± 2.8 | 50.6 ± 2.3 | 41.6 ± 1.9 | 35.6 ± 1.6 | 30.4 ± 1.4 | 27 ± 1.2

CCCOCCO + CCCO
298.15 K, 101.33 kPa
Conditions | viscosity [mPa·s]
x1 = 0.0085 | 1.95 ± 0.015
x1 = 0.0212 | 1.945 ± 0.016
x1 = 0.0386 | 1.944 ± 0.016
x1 = 0.0573 | 1.944 ± 0.016
x1 = 0.0817 | 1.943 ± 0.016
x1 = 0.0917 | 1.942 ± 0.016
x1 = 0.1295 | 1.944 ± 0.016
x1 = 0.157 | 1.948 ± 0.016
x1 = 0.2095 | 1.961 ± 0.017
x1 = 0.2715 | 1.976 ± 0.017
x1 = 0.323 | 1.994 ± 0.018
x1 = 0.3675 | 2.01 ± 0.018
x1 = 0.4185 | 2.031 ± 0.019
x1 = 0.4527 | 2.046 ± 0.02
x1 = 0.5174 | 2.072 ± 0.02
x1 = 0.5743 | 2.103 ± 0.021
x1 = 0.6243 | 2.125 ± 0.022
x1 = 0.6804 | 2.151 ± 0.023
x1 = 0.7324 | 2.186 ± 0.024
x1 = 0.7821 | 2.219 ± 0.025
x1 = 0.853 | 2.257 ± 0.026
x1 = 0.9063 | 2.294 ± 0.027
x1 = 0.9599 | 2.326 ± 0.028

CCCOCCO + O=C1CCCN1
298.15 K, 101 kPa
Conditions | viscosity [mPa·s]
x1 = 0.0058 | 13.97 ± 0.14
x1 = 0.015 | 13.55 ± 0.14
x1 = 0.035 | 12.83 ± 0.13
x1 = 0.0681 | 11.7 ± 0.12
x1 = 0.1013 | 10.72 ± 0.12
x1 = 0.1517 | 9.453 ± 0.1
x1 = 0.2214 | 8.048 ± 0.092
x1 = 0.2526 | 7.522 ± 0.088
x1 = 0.3008 | 6.831 ± 0.082
x1 = 0.3725 | 5.947 ± 0.074
x1 = 0.3786 | 5.895 ± 0.073
x1 = 0.4257 | 5.419 ± 0.069
x1 = 0.4698 | 5.028 ± 0.066
x1 = 0.5219 | 4.651 ± 0.062
x1 = 0.5519 | 4.44 ± 0.06
x1 = 0.6236 | 3.983 ± 0.054
x1 = 0.6987 | 3.576 ± 0.05
x1 = 0.7597 | 3.317 ± 0.047
x1 = 0.8327 | 2.977 ± 0.043
x1 = 0.8764 | 2.801 ± 0.041
x1 = 0.9045 | 2.695 ± 0.04
x1 = 0.9327 | 2.592 ± 0.039
x1 = 0.9694 | 2.473 ± 0.037
x2 = 0.0135 | 2.409 ± 0.036

N#Cc1ccccc1 + COc1ccccc1
viscosity [mPa·s], 101.33 kPa
Conditions | x2 = 0.0923 | x2 = 0.1792 | x2 = 0.2764 | x2 = 0.3719 | x2 = 0.4735 | x2 = 0.6068 | x2 = 0.7036 | x2 = 0.808 | x2 = 0.8989
293.15 K | 1.315 ± 0.069 | 1.3 ± 0.068 | 1.27 ± 0.067 | 1.235 ± 0.065 | 1.191 ± 0.062 | 1.164 ± 0.061 | 1.149 ± 0.06 | 1.134 ± 0.06 | 1.119 ± 0.059
298.15 K | 1.226 ± 0.064 | 1.201 ± 0.063 | 1.181 ± 0.062 | 1.142 ± 0.06 | 1.122 ± 0.059 | 1.088 ± 0.057 | 1.079 ± 0.057 | 1.056 ± 0.055 | 1.036 ± 0.054

NNc1ccccc1 + COc1ccccc1O
303.15 K, 101 kPa
Conditions | viscosity [mPa·s]
x1 = 0.1 | 5.95 ± 0.16
x1 = 0.2 | 8.21 ± 0.22
x1 = 0.3 | 10.92 ± 0.3
x1 = 0.4 | 13.15 ± 0.36
x1 = 0.45 | 14.65 ± 0.41
x1 = 0.5 | 15.26 ± 0.43
x1 = 0.6 | 15.77 ± 0.44
x1 = 0.667 | 16.06 ± 0.45
x1 = 0.7 | 15.54 ± 0.43
x1 = 0.8 | 14.08 ± 0.39
x1 = 0.9 | 12.33 ± 0.34

CCC(=O)OC + c1ccccc1
viscosity [mPa·s]
Conditions | 298.15 K | 308.15 K | 313.15 K | 318.15 K
101 kPa, x2 = 0.1014 | 0.435 ± 0.005 | – | 0.373 ± 0.004 | –
101 kPa, x2 = 0.1972 | 0.444 ± 0.005 | – | 0.38 ± 0.004 | –
101 kPa, x2 = 0.3002 | 0.453 ± 0.005 | – | 0.387 ± 0.004 | –
101 kPa, x2 = 0.3996 | 0.466 ± 0.005 | – | 0.397 ± 0.004 | –
101 kPa, x2 = 0.5012 | 0.48 ± 0.005 | – | 0.407 ± 0.004 | –
101 kPa, x2 = 0.6036 | 0.496 ± 0.005 | – | 0.419 ± 0.004 | –
101 kPa, x2 = 0.6961 | 0.513 ± 0.005 | – | 0.43 ± 0.004 | –
101 kPa, x2 = 0.8009 | 0.536 ± 0.005 | – | 0.447 ± 0.004 | –
101 kPa, x2 = 0.898 | 0.561 ± 0.005 | – | 0.465 ± 0.005 | –
101.3 kPa, x1 = 0.0415 | – | 0.53 ± 0.005 | – | 0.466 ± 0.004
101.3 kPa, x1 = 0.1037 | – | 0.52 ± 0.005 | – | 0.461 ± 0.004
101.3 kPa, x1 = 0.2041 | – | 0.505 ± 0.005 | – | 0.453 ± 0.004
101.3 kPa, x1 = 0.3026 | – | 0.492 ± 0.005 | – | 0.446 ± 0.004
101.3 kPa, x1 = 0.4053 | – | 0.48 ± 0.004 | – | 0.44 ± 0.004
101.3 kPa, x1 = 0.4569 | – | 0.474 ± 0.004 | – | 0.437 ± 0.004
101.3 kPa, x1 = 0.6013 | – | 0.462 ± 0.004 | – | 0.43 ± 0.004
101.3 kPa, x1 = 0.7026 | – | 0.453 ± 0.004 | – | 0.425 ± 0.004
101.3 kPa, x1 = 0.8018 | – | 0.447 ± 0.004 | – | 0.43 ± 0.02
101.3 kPa, x1 = 0.9039 | – | 0.441 ± 0.004 | – | 0.418 ± 0.004
101.3 kPa, x1 = 0.9674 | – | 0.438 ± 0.004 | – | 0.417 ± 0.004

CCCOCCO + O=[N+]([O-])c1ccccc1
298.15 K, 101 kPa
Conditions | viscosity [mPa·s]
x2 = 0.0509 | 2.336 ± 0.018
x2 = 0.1085 | 2.326 ± 0.018
x2 = 0.2052 | 2.316 ± 0.018
x2 = 0.3224 | 2.304 ± 0.017
x2 = 0.3978 | 2.292 ± 0.017
x2 = 0.4501 | 2.279 ± 0.017
x2 = 0.5017 | 2.262 ± 0.017
x2 = 0.5513 | 2.241 ± 0.017
x2 = 0.6026 | 2.216 ± 0.017
x2 = 0.6998 | 2.154 ± 0.016
x2 = 0.8045 | 2.066 ± 0.016
x2 = 0.9028 | 1.957 ± 0.015
x2 = 0.9525 | 1.888 ± 0.014
